# Where two headings read alike, the source gives them in different places.
# Key:
# Type in all cases: cell-based
# Androgen Receptor [1] = target: T1, Androgen Receptor (Homo sapiens, UniProt P10275); experiment: Androgen Receptor ELISA assay (PathScan AR ELISA) in VCaP cells: AR degradation, Dmax and DC50
# T1 construct: endogenous in cells; host or cells: VCaP cells
# T1 sequence (P10275 1-920): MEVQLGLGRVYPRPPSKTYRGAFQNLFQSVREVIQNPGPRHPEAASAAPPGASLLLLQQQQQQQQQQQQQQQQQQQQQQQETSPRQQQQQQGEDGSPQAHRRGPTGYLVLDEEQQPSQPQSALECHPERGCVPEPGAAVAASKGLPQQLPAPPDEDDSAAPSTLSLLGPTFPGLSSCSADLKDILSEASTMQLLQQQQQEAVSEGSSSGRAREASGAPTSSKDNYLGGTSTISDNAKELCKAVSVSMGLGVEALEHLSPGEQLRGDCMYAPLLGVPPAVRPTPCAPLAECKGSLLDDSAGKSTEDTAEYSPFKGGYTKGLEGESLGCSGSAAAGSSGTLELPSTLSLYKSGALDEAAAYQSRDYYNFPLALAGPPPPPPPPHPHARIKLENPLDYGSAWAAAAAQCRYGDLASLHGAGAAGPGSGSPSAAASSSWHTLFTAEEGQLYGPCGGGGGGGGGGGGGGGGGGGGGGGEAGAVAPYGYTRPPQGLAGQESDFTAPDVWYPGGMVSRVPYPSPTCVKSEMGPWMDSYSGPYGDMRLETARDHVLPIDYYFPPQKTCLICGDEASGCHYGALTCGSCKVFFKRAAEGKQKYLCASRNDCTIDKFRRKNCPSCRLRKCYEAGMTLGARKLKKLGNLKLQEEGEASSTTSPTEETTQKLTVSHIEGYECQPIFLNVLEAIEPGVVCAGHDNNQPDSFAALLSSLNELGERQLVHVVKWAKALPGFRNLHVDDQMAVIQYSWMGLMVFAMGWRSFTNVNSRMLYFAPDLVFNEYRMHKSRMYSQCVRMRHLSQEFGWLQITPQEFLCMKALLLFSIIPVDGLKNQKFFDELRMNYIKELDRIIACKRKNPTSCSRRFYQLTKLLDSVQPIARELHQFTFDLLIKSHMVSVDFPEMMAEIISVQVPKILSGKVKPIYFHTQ
# Summary of the method: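 VCaP cells, 30,000/well, grown ≥3 days in phenol red-free RPMI with 5% charcoal-stripped FBS; compound added in 0.1% DMSO with 0.1 nM R1881, 7 half-log doses, 24 h. Lysate AR quantified by PathScan sandwich ELISA, HRP/TMB read at 450 nm, giving DC50 and Dmax.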
# Androgen Receptor [2] = target: T2, Androgen Receptor (Homo sapiens, UniProt P10275+P40337, T878A); experiment: Androgen Receptor ELISA assay (PathScan AR ELISA) in LNCaP cells: AR degradation, Dmax and DC50
# T2 construct: Compounds have been evaluated in this assay in LNCaP and/or VCaP cells utilizing similar protocols; endogenous in cells; host or cells: LNCaP cells
# VCaP cells = experiment: VCaP cell proliferation assay (Cell Titer Glo), GI50; conditions: Homo sapiens; VCaP cells, 0.1 nM R1881; Table 37; read-out: GI50, Inhibition of VCaP Proliferation
# Protocol: 2. VCaP Cell Proliferation Assay.
# VCaP cells are plated 7,500/well 200 μL/well in VCaP assay medium [Phenol red free RPMI (Gibco Cat #11835-030); 5% Charcoal Stripped (Dextran treated) FBS (Omega Scientific, Cat #FB-04); Pen/Strep Life Technologies (Gibco Cat #: 10378-016); 0.1 nM R1881 (Sigma, Cat #R0908) is added upon the start of the assay, not during initial plating of the cells).
# The assay was performed as follows: the cells are grown for a minimum of 3 days to deplete androgens; dosing of PROTACs and R1881 is performed as for AR ELISA; the baseline reading of Cell Titer Glo can be performed on day of dosing.
# VCaP cells with 0.1 nM R1881 will double once in 4 days. Gently draw off 110 μL of media so as not to disturb the adherent cells; add 110 μL of CTG; incubate with slow shaking for 20 minutes; and read luminescence on a plate reader.
# [3] = VCaP, highest percentage of Androgen Receptor degradation observed, VCaP cells (Table 32); read-out: VCaP Dmax (%)
# [4] = VCaP cells; concentration that caused 50% Androgen Receptor degradation; read-out: VCaP DC50
# [5] = VCaP, VCaP cells; highest percentage of Androgen Receptor degradation; read-out: VCaP Dmax (%)
# [6] = read-out: VCaP DC50; VCaP cells; concentration that caused 50% Androgen Receptor degradation
# T2 sequence (P10275 whole entry T878A): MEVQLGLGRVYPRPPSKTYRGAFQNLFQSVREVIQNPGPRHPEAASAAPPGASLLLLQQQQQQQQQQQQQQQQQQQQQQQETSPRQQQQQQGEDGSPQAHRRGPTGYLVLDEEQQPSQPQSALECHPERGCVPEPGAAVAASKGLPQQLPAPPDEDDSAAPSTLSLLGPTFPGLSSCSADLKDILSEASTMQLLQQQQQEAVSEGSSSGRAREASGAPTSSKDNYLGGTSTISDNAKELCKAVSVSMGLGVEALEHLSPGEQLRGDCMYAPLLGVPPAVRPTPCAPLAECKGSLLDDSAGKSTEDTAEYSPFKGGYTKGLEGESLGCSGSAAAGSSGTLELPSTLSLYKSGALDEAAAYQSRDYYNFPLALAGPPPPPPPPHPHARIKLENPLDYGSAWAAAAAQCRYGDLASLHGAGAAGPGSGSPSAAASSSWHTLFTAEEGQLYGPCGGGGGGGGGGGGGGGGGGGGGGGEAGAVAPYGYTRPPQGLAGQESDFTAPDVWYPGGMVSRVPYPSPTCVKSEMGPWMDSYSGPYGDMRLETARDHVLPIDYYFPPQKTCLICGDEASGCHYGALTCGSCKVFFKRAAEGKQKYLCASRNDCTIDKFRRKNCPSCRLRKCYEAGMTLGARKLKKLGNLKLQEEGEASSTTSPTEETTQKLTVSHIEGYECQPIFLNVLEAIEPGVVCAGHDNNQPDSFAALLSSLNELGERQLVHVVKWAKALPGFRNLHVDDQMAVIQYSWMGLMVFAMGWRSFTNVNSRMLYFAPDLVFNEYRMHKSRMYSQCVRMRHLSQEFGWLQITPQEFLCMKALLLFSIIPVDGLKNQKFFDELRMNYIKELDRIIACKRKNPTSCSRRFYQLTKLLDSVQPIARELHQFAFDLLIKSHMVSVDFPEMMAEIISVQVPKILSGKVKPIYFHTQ
# T2 sequence (P40337 whole entry): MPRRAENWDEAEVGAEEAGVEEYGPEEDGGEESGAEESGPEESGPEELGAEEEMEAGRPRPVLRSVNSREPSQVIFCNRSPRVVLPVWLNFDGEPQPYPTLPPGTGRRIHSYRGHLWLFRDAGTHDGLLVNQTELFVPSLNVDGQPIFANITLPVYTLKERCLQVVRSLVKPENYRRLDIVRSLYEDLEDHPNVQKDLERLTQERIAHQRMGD
# T2 sequence (Q15369 whole entry partner): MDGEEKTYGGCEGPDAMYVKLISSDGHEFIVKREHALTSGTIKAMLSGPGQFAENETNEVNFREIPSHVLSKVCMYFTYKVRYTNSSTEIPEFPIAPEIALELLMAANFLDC
# T2 sequence (Q15370 whole entry partner): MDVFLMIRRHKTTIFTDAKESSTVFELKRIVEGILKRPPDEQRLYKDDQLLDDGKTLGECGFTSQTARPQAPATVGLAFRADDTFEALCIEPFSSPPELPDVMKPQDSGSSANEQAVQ
SMILES,"Dmax (Androgen Receptor [1]; VCaP, read-out: VCaP Dmax (%))",GI50 (VCaP cells),DC50 (Androgen Receptor [1]; [4]),Dmax (Androgen Receptor [1]; [5]),further results
"Cc1ncsc1-c1ccc(CNC(=O)[C@@H]2C[C@@H](O)CN2C(=O)[C@@H](NC(=O)COCCCCOc2ccc(-c3ccc(N4C(=S)N(c5ccc(C#N)c(C(F)(F)F)c5)C(=O)C4(C)C)cc3)cc2)C(C)(C)C)cc1 [Example 75, (2S,4R)-1-[(2S)-2-(2-{4-[4-(4-{3-[4-cyano-3-(trifluoromethyl)phenyl]-5,5-dimethyl-4-oxo-2-sulfanylideneimidazolidin-1-yl}phenyl)phenoxy]butoxy}acetamido)-3,3-dimethylbutanoyl]-4-hydroxy-N-{[4-(4-methyl-1,3-thiazol-5-yl)phenyl]methyl}pyrrolidine-2-carboxamide]",> 71%,51 to 250 nM,–,–,"DC50 (Androgen Receptor [1]; read-out: VCaP DC50; concentration that caused 50% Androgen Receptor degradation, VCaP cells): < 50 nM; DC50 (Androgen Receptor [2]; concentration that caused 50% Androgen Receptor degradation): < 50 nM; Dmax (Androgen Receptor [2]; highest percentage of Androgen Receptor degradation observed): > 71%"
"Cc1ncsc1-c1ccc(CNC(=O)[C@@H]2C[C@@H](O)CN2C(=O)[C@@H](NC(=O)COCCCCCNc2ccc(C(=O)N[C@H]3C(C)(C)[C@H](Oc4ccc(C#N)c(Cl)c4)C3(C)C)cc2)C(C)(C)C)cc1 [Example 172, (2S,4R)-1-[(2S)-3,3-dimethyl-2-[2-({5-[(4-{[trans-3-(3-chloro-4-cyanophenoxy)-2,2,4,4-tetramethylcyclobutyl]carbamoyl}phenyl)amino]pentyl}oxy)acetamido]butanoyl]-4-hydroxy-N-{[4-(4-methyl-1,3-thiazol-5-yl)phenyl]methyl}pyrrolidine-2-carboxamide]",–,≤ 50 nM,–,–,Dmax (Androgen Receptor [1]; [3]): > 71%
"Cc1ncsc1-c1ccc(CNC(=O)[C@@H]2C[C@@H](O)CN2C(=O)[C@@H](NC(=O)COCc2ccc(Oc3ccc(C(=O)N[C@H]4C(C)(C)[C@H](Oc5ccc(C#N)c(Cl)c5)C4(C)C)cc3)cc2)C(C)(C)C)cc1 [Example 183, (2S,4R)-1-[(2S)-3,3-dimethyl-2-(2-{[4-(4-{[trans-3-(3-chloro-4-cyanophenoxy)-2,2,4,4-tetramethylcyclobutyl]carbamoyl}phenoxy)phenyl]methoxy}acetamido)butanoyl]-4-hydroxy-N-{[4-(4-methyl-1,3-thiazol-5-yl)phenyl]methyl}pyrrolidine-2-carboxamide]",–,≤ 50 nM,–,–,Dmax (Androgen Receptor [1]; [3]): > 71%
"Cc1ncsc1-c1ccc([C@H](C)NC(=O)[C@@H]2C[C@@H](O)CN2C(=O)[C@@H](NC(=O)COCCCCOc2ccc(-c3ccc(N4C(=S)N(c5cnc(C#N)c(C(F)(F)F)c5)C(=O)C4(C)C)cc3)cc2)C(C)(C)C)cc1 [Example 194, (2S,4R)-1-[(2S)-2-(2-{4-[4-(4-{3-[6-cyano-5-(trifluoromethyl)pyridin-3-yl]-5,5-dimethyl-4-oxo-2-sulfanylideneimidazolidin-1-yl}phenyl)phenoxy]butoxy}acetamido)-3,3-dimethylbutanoyl]-4-hydroxy-N-[(1S)-1-[4-(4-methyl-1,3-thiazol-5-yl)phenyl]ethyl]pyrrolidine-2-carboxamide]",–,51 to 250 nM,< 50 nM,> 71%,–
"Cc1ncoc1-c1ccc([C@H](C)NC(=O)[C@@H]2C[C@@H](O)CN2C(=O)[C@@H](NC(=O)COCCCCOc2ccc(-c3ccc(N4C(=S)N(c5cnc(C#N)c(C(F)(F)F)c5)C(=O)C4(C)C)cc3)cc2)C(C)(C)C)cc1 [Example 195, (2S,4R)-1-[(2S)-2-(2-{4-[4-(4-{3-[6-cyano-5-(trifluoromethyl)pyridin-3-yl]-5,5-dimethyl-4-oxo-2-sulfanylideneimidazolidin-1-yl}phenyl)phenoxy]butoxy}acetamido)-3,3-dimethylbutanoyl]-4-hydroxy-N-[(1S)-1-[4-(4-methyl-1,3-oxazol-5-yl)phenyl]ethyl]pyrrolidine-2-carboxamide]",–,51 to 250 nM,< 50 nM,> 71%,–
"Cc1ncsc1-c1ccc(CNC(=O)[C@@H]2C[C@@H](O)CN2C(=O)[C@@H](NC(=O)COCCCCOc2ccc(-c3ccc(N4C(=S)N(c5cnc(C#N)c(C(F)(F)F)c5)C(=O)C4(C)C)c(F)c3)cc2)C(C)(C)C)cc1 [Example 197, (2S,4R)-1-[(2S)-2-(2-{4-[4-(4-{3-[6-cyano-5-(trifluoromethyl)pyridin-3-yl]-5,5-dimethyl-4-oxo-2-sulfanylideneimidazolidin-1-yl}-3-fluorophenyl)phenoxy]butoxy}acetamido)-3,3-dimethylbutanoyl]-4-hydroxy-N-{[4-(4-methyl-1,3-thiazol-5-yl)phenyl]methyl}pyrrolidine-2-carboxamide]",–,51 to 250 nM,< 50 nM,> 71%,–
"Cc1ncsc1-c1ccc(CNC(=O)[C@@H]2C[C@@H](O)CN2C(=O)[C@@H](NC(=O)COCC2CC3(C2)CC(COc2ccc(N4C(=S)N(c5ccc(C#N)c(C(F)(F)F)c5)C(=O)C4(C)C)cc2)C3)C(C)(C)C)cc1 (stereo partly drawn) [Example 201, (2S,4R)-1-[(2S)-2-[2-({6-[(4-{3-[4-cyano-3-(trifluoromethyl)phenyl]-5,5-dimethyl-4-oxo-2-sulfanylideneimidazolidin-1-yl}phenoxy)methyl]spiro[3.3]heptan-2-yl}methoxy)acetamido]-3,3-dimethylbutanoyl]-4-hydroxy-N-{[4-(4-methyl-1,3-thiazol-5-yl)phenyl]methyl} pyrrolidine-2-carboxamide]",> 71%,51 to 250 nM,–,–,DC50 (Androgen Receptor [1]; [6]): < 50 nM
"Cc1ncsc1-c1ccc([C@H](C)NC(=O)[C@@H]2C[C@@H](O)CN2C(=O)[C@@H](NC(=O)COCC2CC3(C2)CC(COc2ccc(N4C(=S)N(c5ccc(C#N)c(C(F)(F)F)c5)C(=O)C4(C)C)cc2)C3)C(C)(C)C)cc1 (stereo partly drawn) [Example 202, (2S,4R)-1-[(2S)-2-[2-({6-[(4-{3-[4-cyano-3-(trifluoromethyl)phenyl]-5,5-dimethyl-4-oxo-2-sulfanylideneimidazolidin-1-yl}phenoxy)methyl]spiro[3.3]heptan-2-yl}methoxy)acetamido]-3,3-dimethylbutanoyl]-4-hydroxy-N-[(1S)-1-[4-(4-methyl-1,3-thiazol-5-yl)phenyl]ethyl] pyrrolidine-2-carboxamide]",> 71%,51 to 250 nM,–,–,DC50 (Androgen Receptor [1]; [6]): < 50 nM
"Cc1ncsc1-c1ccc(CNC(=O)[C@@H]2C[C@@H](O)CN2C(=O)[C@@H](NC(=O)COCCNc2ccc(-c3ccc(C(=O)NC4C(C)(C)C(Oc5ccc(C#N)c(Cl)c5)C4(C)C)cc3)cc2)C(C)(C)C)cc1 (stereo partly drawn) [Example 204, (2S,4R)-1-[(2S)-2-[2-(2-{[4-(4-{[3-(3-chloro-4-cyanophenoxy)-2,2,4,4-tetramethylcyclobutyl]carbamoyl}phenyl)phenyl]amino}ethoxy)acetamido]-3,3-dimethylbutanoyl]-4-hydroxy-N-{[4-(4-methyl-1,3-thiazol-5-yl)phenyl]methyl}pyrrolidine-2-carboxamide]",–,≤ 50 nM,< 50 nM,> 71%,–

# Source: patent publication US11427548B2 (Arvinas Operations, Inc., priority 2015, dated 2022)
